In patent US11540981B2, “Nanoemulsion formulation with improved stability and cell penetration” (BIOFRONTERA BIOSCIENCE GMBH, priority 2006, dated 2023):

Assays:
[1] = 25° C.; cited from earlier work
[2] = Phase II clinical study: pharmacokinetic assessment of systemic plasma and urine levels; details: ALA-treated patients, compared with naturally occurring physiological values in the same individuals
[3] = high concentrations required for clinical application, neutral to basic pH range; cited from earlier work

plasma concentrations of ALA and its metabolite protoporphyrin IX [2] | urine concentrations of ALA and its metabolite protoporphyrin IX [2] | SMILES | viscosity [1] [cp] | stability in aqueous solutions [3]
 |  | CCO [ethanol] | 1.10 | 
not increased | not increased | NCC(=O)CCC(=O)O [ALA, 5-aminolevulinic acid] |  | unstable
 |  | CC(C)O [isopropanol] | 2.32 | 
